Results taken from patent publication US6355799B1, “Substituted benzene compounds, process for their preparation, and herbicidal and defoliant compositions containing them” (ISK Americas Incorporated, priority 1997, dated 2002).

Tests used:
Format in all cases: in vivo
[1] = tested on: redroot pigweed (Amaranthus retroflexus, AMARE); assay: Pre-emerge test, greenhouse herbicide activity screening; details: rating scale 0-100, 14 days after application
Outline: (§1)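 Compounds in acetone were track-sprayed at 187 l/ha, 15–1000 g ai/ha, onto sandy loam pots. Pre-emerge seeds were sown one day before spraying, with surface watering afterwards. Post-emerge plants were at the 2–3 leaf stage and sprayed with 0.25% v/v non-ionic surfactant. Injury was rated 0–100 at 14 days.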

[2] = tested on: barnyardgrass (Echinochloa crus-galli, ECHCG); assay: as above; details: rating scale 0-100, 14 days after application
Outline: (§2)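 Fourteen days after spraying, crop and weed injury was graded visually from 0, no effect, to 100, every plant dead. Test substances were dissolved in acetone and applied at 15–1000 g ai/ha with a flat-fan nozzle. Application was either pre-emergence, one day after sowing, or post-emergence at the 2–3 leaf stage.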

[3] = tested on: green foxtail (Setaria viridis, SETVI); assay: as above; details: rating scale 0-100, 14 days after application
Outline: as §2

[4] = tested on: ivyleaf morningglory (Ipomoea hederacea, IPOHE); assay: as above; details: rating scale 0-100, 14 days after application
Outline: as §2

[5] = tested on: johnsongrass (Sorghum halepense, SORHA); assay: as above; details: rating scale 0-100, 14 days after application
Outline: as §2

[6] = tested on: lambsquarters (Chenopodium album, CHEAL); assay: as above; details: rating scale 0-100, 14 days after application
Outline: as §2

[7] = tested on: large crabgrass (Digitaria sanguinalis, DIGSA); assay: as above; details: rating scale 0-100, 14 days after application
Outline: as §2

[8] = tested on: sicklepod (Cassia obtusifolia, CASOB); assay: as above; details: rating scale 0-100, 14 days after application
Outline: as §2

[9] = tested on: velvetleaf (Abutilon theophrasti, ABUTH); assay: as above; details: rating scale 0-100, 14 days after application
Outline: as §2

[10] = tested on: field corn (Zea mays L., var. Dekalb 535, CORN); assay: Pre-emerge test, crop safety; details: rating scale 0-100, 14 days after application
Outline: (§3)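 Rating: 0–100 visual injury, 14 DAA. Application: acetone, 187 l/ha, 15–1000 g ai/ha, flat-fan track sprayer with nozzle 40–45 cm above soil or canopy. Post-emerge runs used 0.25% v/v surfactant on 2–3 leaf plants.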

[11] = tested on: upland rice (Oryza sp., var. Tebonnet, RICE); assay: Pre-emerge test, crop safety; details: rating scale 0-100, 14 days after application
Outline: as §3

[12] = tested on: barnyardgrass (Echinochloa crus-galli, ECHCG); assay: Post-emerge test, greenhouse herbicide activity screening; details: 14 days after application; for Post-emerge Herbicidal Activity ECHCG (phytotoxicity rating): rating scale 0-100; for Post-emerge Herbicidal Activity, phytotoxicity rating ECHCG: rating scale 0-100 (0 no damage, 100 complete death)
Outline: as §1

[13] = tested on: common ragweed (Ambrosia artemisizfolia L., AMBEL); assay: as above; details: post-emerge, 14 days after application, rating scale 0-100
Outline: as §1

[14] = tested on: green foxtail (Setaria viridis, SETVI); assay: as above; details: 14 days after application; for Post-emerge Herbicidal Activity SETVI (phytotoxicity rating): rating scale 0-100; for Post-emerge Herbicidal Activity, phytotoxicity rating SETVI: rating scale 0-100 (0 no damage, 100 complete death)
Outline: as §1

[15] = tested on: ivyleaf morningglory (Ipomoea hederacea, IPOHE); assay: as above; details: 14 days after application; for Post-emerge Herbicidal Activity IPOHE (phytotoxicity rating): rating scale 0-100; for Post-emerge Herbicidal Activity, phytotoxicity rating IPOHE: rating scale 0-100 (0 no damage, 100 complete death)
Outline: as §1

[16] = tested on: johnsongrass (Sorghum halepense, SORHA); assay: as above; details: rating scale 0-100 (0 no damage, 100 complete death), 14 days after application
Outline: as §1

[17] = tested on: lambsquarters (Chenopodium album, CHEAL); assay: as above; details: 14 days after application; for Post-emerge Herbicidal Activity CHEAL (phytotoxicity rating): rating scale 0-100; for Post-emerge Herbicidal Activity, phytotoxicity rating CHEAL: rating scale 0-100 (0 no damage, 100 complete death)
Outline: as §1

[18] = tested on: large crabgrass (Digitaria sanguinalis, DIGSA); assay: as above; details: 14 days after application; for Post-emerge Herbicidal Activity DIGSA (phytotoxicity rating): rating scale 0-100; for Post-emerge Herbicidal Activity, phytotoxicity rating DIGSA: rating scale 0-100 (0 no damage, 100 complete death)
Outline: as §1

[19] = tested on: redroot pigweed (Amaranthus retroflexus, AMARE); assay: as above; details: 14 days after application
Outline: as §1

[20] = tested on: sicklepod (Cassia obtusifolia, CASOB); assay: as above; details: 14 days after application; for Post-emerge Herbicidal Activity CASOB (phytotoxicity rating): rating scale 0-100; for Post-emerge Herbicidal Activity, phytotoxicity rating CASOB: rating scale 0-100 (0 no damage, 100 complete death)
Outline: as §1

[21] = tested on: velvetleaf (Abutilon theophrasti, ABUTH); assay: as above; details: 14 days after application; for Post-emerge Herbicidal Activity ABUTH (phytotoxicity rating): rating scale 0-100; for Post-emerge Herbicidal Activity, phytotoxicity rating ABUTH: rating scale 0-100 (0 no damage, 100 complete death)
Outline: as §1

[22] = tested on: field corn (Zea mays L., var. Dekalb 535, CORN); assay: Post-emerge test, crop safety; details: 14 days after application; for Post-emerge Herbicidal Activity CORN (crop damage rating): rating scale 0-100; for Post-emerge phytotoxicity rating CORN (crop damage): rating scale 0-100 (0 no damage, 100 complete death)
Outline: as §2

[23] = tested on: upland rice (Oryza sp., var. Tebonnet, RICE); assay: Post-emerge test, crop safety; details: 14 days after application; for Post-emerge Herbicidal Activity RICE (crop damage rating): rating scale 0-100; for Post-emerge phytotoxicity rating RICE (crop damage): rating scale 0-100 (0 no damage, 100 complete death)
Outline: as §2

C#CCOC(=O)C(C)(Cl)Cc1c(OC)c(Cl)cc(F)c1-n1c(=O)cc(C(F)(F)F)n(C)c1=O (stereo not drawn) [14-44]
20: Post-emerge Herbicidal Activity CASOB (phytotoxicity rating) ([20]; 250 g ai/ha)
40: Post-emerge Herbicidal Activity AMBEL (phytotoxicity rating) ([13]; 250 g ai/ha) | Post-emerge Herbicidal Activity DIGSA (phytotoxicity rating) ([18]; 63 g ai/ha)
30: Post-emerge Herbicidal Activity AMBEL (phytotoxicity rating) ([13]; 63 g ai/ha) | Post-emerge Herbicidal Activity SETVI (phytotoxicity rating) ([14]; 63 g ai/ha) | Post-emerge Herbicidal Activity IPOHE (phytotoxicity rating) ([15]; 63 g ai/ha) | Post-emerge Herbicidal Activity, phytotoxicity rating SORHA ([16]; Rate 63 g ai/ha)
50: Pre-emerge herbicidal activity, phytotoxicity rating ECHCG ([2]; 250 g ai/ha) | Pre-emerge phytotoxicity rating, crop damage RICE ([11]; 250 g ai/ha) | Post-emerge Herbicidal Activity, phytotoxicity rating IPOHE ([15]; Rate 63 g ai/ha)
100: Pre-emerge herbicidal activity, phytotoxicity rating AMARE ([1]; 250 g ai/ha) | Pre-emerge herbicidal activity, phytotoxicity rating CHEAL ([6]; 250 g ai/ha) | Pre-emerge herbicidal activity, phytotoxicity rating ABUTH ([9]; 250 g ai/ha) | Post-emerge Herbicidal Activity ECHCG (phytotoxicity rating) ([12]; 63 g ai/ha) | Post-emerge Herbicidal Activity ECHCG (phytotoxicity rating) ([12]; 250 g ai/ha) | Post-emerge Herbicidal Activity, phytotoxicity rating ECHCG ([12]; Rate 63 g ai/ha) | Post-emerge Herbicidal Activity, phytotoxicity rating ECHCG ([12]; Rate 250 g ai/ha) | Post-emerge Herbicidal Activity, phytotoxicity rating SETVI ([14]; Rate 63 g ai/ha) | Post-emerge Herbicidal Activity, phytotoxicity rating SETVI ([14]; Rate 250 g ai/ha) | Post-emerge Herbicidal Activity, phytotoxicity rating CHEAL ([17]; Rate 63 g ai/ha) | Post-emerge Herbicidal Activity, phytotoxicity rating CHEAL ([17]; Rate 250 g ai/ha) | Post-emerge Herbicidal Activity, phytotoxicity rating DIGSA ([18]; Rate 63 g ai/ha) | Post-emerge Herbicidal Activity, phytotoxicity rating DIGSA ([18]; Rate 250 g ai/ha) | Post-emerge Herbicidal Activity AMARE (phytotoxicity rating) ([19]; 63 g ai/ha, rating scale 0-100 (0 no damage, 100 complete death)) | Post-emerge Herbicidal Activity AMARE (phytotoxicity rating) ([19]; 250 g ai/ha, rating scale 0-100) | Post-emerge Herbicidal Activity, phytotoxicity rating AMARE ([19]; Rate 63 g ai/ha, rating scale 0-100 (0 no damage, 100 complete death)) | Post-emerge Herbicidal Activity, phytotoxicity rating AMARE ([19]; Rate 250 g ai/ha, rating scale 0-100 (0 no damage, 100 complete death)) | Post-emerge Herbicidal Activity ABUTH (phytotoxicity rating) ([21]; 63 g ai/ha) | Post-emerge Herbicidal Activity ABUTH (phytotoxicity rating) ([21]; 250 g ai/ha) | Post-emerge Herbicidal Activity, phytotoxicity rating ABUTH ([21]; Rate 63 g ai/ha) | Post-emerge Herbicidal Activity, phytotoxicity rating ABUTH ([21]; Rate 250 g ai/ha) | Post-emerge Herbicidal Activity CORN (crop damage rating) ([22]; 250 g ai/ha) | Post-emerge phytotoxicity rating CORN (crop damage) ([22]; Rate 63 g ai/ha) | Post-emerge phytotoxicity rating CORN (crop damage) ([22]; Rate 250 g ai/ha) | Post-emerge phytotoxicity rating RICE (crop damage) ([23]; Rate 250 g ai/ha)
5: Post-emerge Herbicidal Activity RICE (crop damage rating) ([23]; 63 g ai/ha)
0: Pre-emerge herbicidal activity, phytotoxicity rating ECHCG ([2]; 63 g ai/ha) | Pre-emerge herbicidal activity, phytotoxicity rating SETVI ([3]; 63 g ai/ha) | Pre-emerge herbicidal activity, phytotoxicity rating IPOHE ([4]; 63 g ai/ha) | Pre-emerge herbicidal activity, phytotoxicity rating IPOHE ([4]; 250 g ai/ha) | Pre-emerge herbicidal activity, phytotoxicity rating SORHA ([5]; 63 g ai/ha) | Pre-emerge herbicidal activity, phytotoxicity rating SORHA ([5]; 250 g ai/ha) | Pre-emerge herbicidal activity, phytotoxicity rating DIGSA ([7]; 63 g ai/ha) | Pre-emerge herbicidal activity, phytotoxicity rating CASOB ([8]; 63 g ai/ha) | Pre-emerge herbicidal activity, phytotoxicity rating CASOB ([8]; 250 g ai/ha) | Pre-emerge phytotoxicity rating, crop damage CORN ([10]; 63 g ai/ha) | Pre-emerge phytotoxicity rating, crop damage CORN ([10]; 250 g ai/ha) | Pre-emerge phytotoxicity rating, crop damage RICE ([11]; 63 g ai/ha) | Post-emerge Herbicidal Activity, phytotoxicity rating CASOB ([20]; Rate 63 g ai/ha) | Post-emerge Herbicidal Activity, phytotoxicity rating CASOB ([20]; Rate 250 g ai/ha) | Post-emerge Herbicidal Activity RICE (crop damage rating) ([23]; 250 g ai/ha)
80: Pre-emerge herbicidal activity, phytotoxicity rating ABUTH ([9]; 63 g ai/ha) | Post-emerge Herbicidal Activity IPOHE (phytotoxicity rating) ([15]; 250 g ai/ha) | Post-emerge Herbicidal Activity, phytotoxicity rating SORHA ([16]; Rate 250 g ai/ha)
10: Post-emerge Herbicidal Activity CASOB (phytotoxicity rating) ([20]; 63 g ai/ha)
90: Pre-emerge herbicidal activity, phytotoxicity rating DIGSA ([7]; 250 g ai/ha) | Post-emerge Herbicidal Activity, phytotoxicity rating IPOHE ([15]; Rate 250 g ai/ha) | Post-emerge phytotoxicity rating RICE (crop damage) ([23]; Rate 63 g ai/ha)
70: Pre-emerge herbicidal activity, phytotoxicity rating AMARE ([1]; 63 g ai/ha) | Pre-emerge herbicidal activity, phytotoxicity rating SETVI ([3]; 250 g ai/ha) | Pre-emerge herbicidal activity, phytotoxicity rating CHEAL ([6]; 63 g ai/ha) | Post-emerge Herbicidal Activity SETVI (phytotoxicity rating) ([14]; 250 g ai/ha) | Post-emerge Herbicidal Activity CHEAL (phytotoxicity rating) ([17]; 63 g ai/ha)
99: Post-emerge Herbicidal Activity CHEAL (phytotoxicity rating) ([17]; 250 g ai/ha) | Post-emerge Herbicidal Activity DIGSA (phytotoxicity rating) ([18]; 250 g ai/ha) | Post-emerge Herbicidal Activity CORN (crop damage rating) ([22]; 63 g ai/ha)
